Test results taken from the supplement of paper PMC11061612.

What was measured:
[1] = test system: A549 (Lung Adenocarcinoma); test: combination Emax (second highest fraction inhibited in the dose matrix, 72 h); higher = more inhibition; extreme values may be limits of the assay
Method in brief: (§1)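 Cell lines grown in DMEM/F12 or RPMI with 10% FBS were plated in 1536-well plates and held 24 hours at 37°C, 5% CO2 before 72 hours of exposure to two-drug dose matrices, with DMSO typically at 0.2%. CellTiter-Glo 2.0 luminescence gave viability, which was converted to inhibition. Vehicle wells were set to 0 and blank wells to 1. Combination Emax is the second-highest inhibition in the matrix, and Bliss excess is the observed combination effect minus the expected EA + EB − EA·EB, where EA and EB are the single-agent effects.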

[2] = test system: ECC10 (Gastric Carcinoma); test: as above
Method in brief: as §1

[3] = test system: A498 (Kidney Carcinoma); test: as above
Method in brief: as §1

[4] = test system: CCK-81 (Colorectal Carcinoma); test: as above
Method in brief: as §1

[5] = test system: NCI-H1581 (Non-Small Cell Lung Carcinoma); test: as above
Method in brief: as §1

[6] = test system: SK-MES-1 (Squamous Cell Lung Carcinoma); test: as above
Method in brief: as §1

[7] = test system: IGR-37 (Melanoma); test: as above
Method in brief: as §1

[8] = test system: COLO-824 (Breast Carcinoma); test: as above
Method in brief: as §1

[9] = test system: COR-L311 (Small Cell Lung Carcinoma); test: as above
Method in brief: as §1

[10] = test system: HCC1954 (Breast Carcinoma); test: as above
Method in brief: as §1

[11] = test system: 8-MG-BA (Glioblastoma); test: as above
Method in brief: as §1

[12] = test system: ARH-77 (Non-Cancerous); test: as above
Method in brief: as §1

[13] = test system: NCI-H64 (Small Cell Lung Carcinoma); test: as above
Method in brief: as §1

[14] = test system: JSC-1 (B-Cell Non-Hodgkin's Lymphoma); test: as above
Method in brief: as §1

[15] = test system: NY (Osteosarcoma); test: as above
Method in brief: as §1

[16] = test system: CAL-29 (Bladder Carcinoma); test: as above
Method in brief: as §1

[17] = test system: Hs-445 (Non-Cancerous); test: as above
Method in brief: as §1

[18] = test system: NCI-H1666 (Lung Adenocarcinoma); test: Bliss excess, mean over the matrix (fraction); higher = more synergy
Method in brief: as §1

[19] = test system: COR-L311 (Small Cell Lung Carcinoma); test: as above
Method in brief: as §1

[20] = test system: NCI-H1693 (Lung Adenocarcinoma); test: as above
Method in brief: as §1
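Throughout, for Bliss excess, mean over the matrix: after 72 h of two-drug dosing.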

| SMILES | combination Emax [1] | combination Emax [2] | combination Emax [3] | combination Emax [4] | combination Emax [5] | combination Emax [6] | combination Emax [7] | combination Emax [8] | combination Emax [9] | combination Emax [10] | combination Emax [11] | combination Emax [12] | combination Emax [13] | combination Emax [14] | combination Emax [15] | combination Emax [16] | combination Emax [17] | Bliss excess [18] | Bliss excess [19] | Bliss excess [20] |
| --- | --- | --- | --- | --- | --- | --- | --- | --- | --- | --- | --- | --- | --- | --- | --- | --- | --- | --- | --- | --- |
| CN(C)CCCOc1ccc(-c2ccc3ncc4c(c3c2)n(C2CCOCC2)c(=O)n4C)cn1 [AZD0156] + C=CCn1c(=O)c2cnc(Nc3ccc(N4CCN(C)CC4)cc3)nc2n1-c1cccc(C(C)(C)O)n1 [AZD1775] (first compound max 1 µM, partner max 1 µM) | 0.317 | 0.783 | 0.544 | 0.903 | 0.331 | 0.555 | 0.706 | 0.644 | 0.56 | 0.181 | 0.74 | 0.944 | 0.832 | 0.868 | 0.555 | 0.642 | 0.926 | -0.0371 | -0.115 | -0.0242 |
| CN(C)CCCOc1ccc(-c2ccc3ncc4c(c3c2)n(C2CCOCC2)c(=O)n4C)cn1 [AZD0156] + CCN(CCO)CCCOc1ccc2c(Nc3cc(CC(=O)Nc4cccc(F)c4)[nH]n3)ncnc2c1 [AZD2811] (first compound max 1 µM, 7x7, partner max 1 µM) | 0.595 | 0.856 | 0.172 | 0.159 | 0.271 | 0.204 | 0.0663 | 0.818 | 0.815 | 0.0882 | 0.215 | 0.492 | 0.461 | 0.19 | 0.0423 | 0.284 | 0.325 | -0.0661 | 0.0607 | -0.0274 |
| CN(C)CCCOc1ccc(-c2ccc3ncc4c(c3c2)n(C2CCOCC2)c(=O)n4C)cn1 [AZD0156] + C[C@@H]1COCCN1C2=NC(=NC(=C2)C3(CC3)[S@](=N)(=O)C)C4=C5C=CNC5=NC=C4 [AZD6738] (first compound max 1 µM, 7x7, partner max 10 µM) | 0.789 | 0.332 | 0.703 | 0.912 | 0.418 | 0.73 | 0.781 | 0.712 | 0.408 | 0.435 | 0.834 | 0.975 | 0.732 | 0.916 | 0.555 | 0.772 | 0.868 | -0.0274 | 0.0265 | -0.0424 |
| CN(C)CCCOc1ccc(-c2ccc3ncc4c(c3c2)n(C2CCOCC2)c(=O)n4C)cn1 [AZD0156] + O=C(c1cc(Cc2n[nH]c(=O)c3ccccc23)ccc1F)N1CCN(C(=O)C2CC2)CC1 [Olaparib] (first compound max 3 µM, partner max 3 µM) | 0.374 | 0.299 | 0.316 | 0.394 | 0.412 | 0.407 | 0.194 | 0.383 | 0.393 | 0.218 | 0.4 | 0.63 | 0.145 | 0.582 | 0.338 | 0.319 | 0.174 | 0.0049 | 0.092 | -0.0439 |
| C=CCn1c(=O)c2cnc(Nc3ccc(N4CCN(C)CC4)cc3)nc2n1-c1cccc(C(C)(C)O)n1 [AZD1775] + C1CN(CCC1(C(=O)N[C@@H](CCO)C2=CC=C(C=C2)Cl)N)C3=NC=NC4=C3C=CN4 [Capivasertib] (first compound max 3 µM, partner max 3 µM) | 0.664 | 0.746 | 0.671 | 0.85 | 0.857 | 0.781 | 0.813 | 0.79 |  | 0.914 | 0.975 | 0.983 | 0.92 | 0.911 | 0.737 | 0.839 | 0.855 | -0.0773 | -0.0057 | -0.0389 |
| C=CCn1c(=O)c2cnc(Nc3ccc(N4CCN(C)CC4)cc3)nc2n1-c1cccc(C(C)(C)O)n1 [AZD1775] + C[C@@H]1COCCN1C2=NC(=NC(=C2)C3(CC3)[S@](=N)(=O)C)C4=C5C=CNC5=NC=C4 [AZD6738] (first compound max 1 µM, partner max 10 µM) | 0.829 | 0.843 | 0.682 | 0.944 | 0.771 | 0.695 | 0.787 | 0.851 | 0.801 | 0.77 |  | 1 | 0.936 | 0.905 | 0.665 | 0.794 | 0.914 | 0.0189 | 0.0133 | -0.0084 |
| CN(CCO)CC[C@H](CSc1ccccc1)Nc1ccc(S(=O)(=O)NC(=O)c2ccc(N3CCC([C@@H](O)c4ccccc4-c4ccc(Cl)cc4)CC3)cc2)cc1S(=O)(=O)C(F)(F)F [AZD4320] + CN(C)CCCOc1ccc(-c2ccc3ncc4c(c3c2)n(C2CCOCC2)c(=O)n4C)cn1 [AZD0156] (first compound max 1 µM, 7x7, partner max 1 µM) | 0.175 | 1 | 0.254 |  | 0.19 | 0.208 | 0.116 | 1 | 1 | 0.327 | 0.0798 | 0.793 | 0.973 | 0.116 | 0.0862 | 0.104 | 0.497 | -0.0508 | 0.0177 | -0.0226 |
| COc1nnc2ccc(N3CCC(c4ccc(OCCN5CCN(C)C(=O)[C@H]5C)cc4)CC3)nn12 [AZD5153] + CN(CC[C@H](CSC1=CC=CC=C1)NC2=C(C=C(C=C2)S(=O)(=O)NC(=O)C3=CC=C(C=C3)N4CCC(CC4)[C@H](C5=CC=CC=C5C6=CC=C(C=C6)Cl)O)S(=O)(=O)C(F)(F)F)CCO [AZD4320] (first compound max 1 µM, 7x7, partner max 1 µM) | 0.735 |  | 0.66 |  |  | 0.631 |  | 1 | 1 | 0.322 | 0.772 | 0.965 |  | 0.71 |  | 0.401 | 0.889 |  | 0.0506 | 0.04 |
| Cc1c2c(nn1C)CSCc1cc(n(C)n1)CSc1cc(c3ccccc3c1)OCCCc1c(C(=O)O)n(C)c3c-2c(Cl)ccc13 [AZD5991] + Cn1cnc2c(F)c(Nc3ccc(Br)cc3Cl)c(C(=O)NOCCO)cc21 [Selumetinib] (first compound max 1 µM, 7x7, partner max 3 µM) | 0.64 | 0.669 | 0.611 | 0.947 | 0.991 | 0.435 | 0.996 | 0.406 | 0.247 | 0.982 | 0.739 |  | 0.295 | 1 | 0.416 | 0.677 | 0.932 | 0.0499 | -0.0212 | 0.0314 |
| C[C@@H]1COCCN1c1cc(C2([S@](C)(=N)=O)CC2)nc(-c2ccnc3[nH]ccc23)n1 [AZD6738] + O=C(c1cc(Cc2n[nH]c(=O)c3ccccc23)ccc1F)N1CCN(C(=O)C2CC2)CC1 [Olaparib] (first compound max 10 µM, 7x7, partner max 10 µM) | 0.809 | 0.54 | 0.636 |  | 0.528 | 0.696 | 0.738 | 0.595 | 0.509 | 0.353 | 0.85 | 0.911 | 0.692 | 0.822 | 0.607 | 0.71 | 0.835 | 0.0073 | -0.0507 | -0.0082 |
| CC(=O)c1c(C)c2cnc(Nc3ccc(N4CCNCC4)cn3)nc2n(C2CCCC2)c1=O [Palbociclib] + CN(CC[C@H](CSC1=CC=CC=C1)NC2=C(C=C(C=C2)S(=O)(=O)NC(=O)C3=CC=C(C=C3)N4CCC(CC4)[C@H](C5=CC=CC=C5C6=CC=C(C=C6)Cl)O)S(=O)(=O)C(F)(F)F)CCO [AZD4320] (first compound max 10 µM, 7x7, partner max 1 µM) | 0.723 |  | 0.658 |  |  | 0.289 |  | 1 | 1 | 0.32 | 0.337 | 0.899 |  | 0.59 |  | 0.172 | 0.95 |  | 0.0047 | -0.0313 |
| CCc1c2c(nc3ccc(O)cc13)-c1cc3c(c(=O)n1C2)COC(=O)[C@]3(O)CC [SN-38] + O=C(c1cc(Cc2n[nH]c(=O)c3ccccc23)ccc1F)N1CCN(C(=O)C2CC2)CC1 [Olaparib] (first compound max 0.3 µM, 7x7, partner max 10 µM) | 0.817 | 1 | 0.598 | 0.587 | 0.722 |  | 0.863 |  |  |  | 0.986 | 0.997 | 0.396 | 0.973 | 0.91 |  | 1 | 0.0889 |  |  |
| C[C@@H](c1ccc2nccn2c1)n1nnc2ncc(-c3cnn(C)c3)nc21 [Savolitinib] + CN(CC[C@H](CSC1=CC=CC=C1)NC2=C(C=C(C=C2)S(=O)(=O)NC(=O)C3=CC=C(C=C3)N4CCC(CC4)[C@H](C5=CC=CC=C5C6=CC=C(C=C6)Cl)O)S(=O)(=O)C(F)(F)F)CCO [AZD4320] (first compound max 1 µM, 7x7, partner max 1 µM) | 0.165 |  | 0.308 |  |  | 0.18 |  | 1 | 1 | 0.412 | 0.116 | 0.82 |  | 0.117 |  | 0.174 | 0.625 |  | 0.0158 | -0.0491 |
